According to publication PMC5288202, “Simultaneous inhibition of Vps34 kinase would enhance PI3Kδ inhibitor cytotoxicity in the B-cell malignancies” (Oncotarget, 2016):

Assays:
[1] = system: CMK; test: Anti-proliferative effect; assay type: cell-based; conditions: Homo sapiens, read-out: GI50 CMK
[2] = system: MEC-1; test: Anti-proliferative effect; assay type: cell-based; conditions: Homo sapiens, MEC1; CLL
[3] = system: OCI-AML-2; test: Cell cycle analysis; assay type: cell-based; conditions: OCI-AML-2, 48 h treatment
[4] = system: OCI-AML-3; test: Colony formation (colonogenic assay); assay type: cell-based; conditions: Homo sapiens
[5] = system: protein kinases; test: DiscoveRx's KinomeScan selectivity profile; assay type: binding; conditions: 1 μM
[6] = biological target: T1, PI3Kα (Homo sapiens, UniProt P42336); test: ADP-Glo biochemical assay; conditions: purified protein, 10 μM ATP, read-out: IC50 against PI3Kα (PIK3CA)
T1 construct: purchased Invitrogen
T1 sequence (P42336 whole entry): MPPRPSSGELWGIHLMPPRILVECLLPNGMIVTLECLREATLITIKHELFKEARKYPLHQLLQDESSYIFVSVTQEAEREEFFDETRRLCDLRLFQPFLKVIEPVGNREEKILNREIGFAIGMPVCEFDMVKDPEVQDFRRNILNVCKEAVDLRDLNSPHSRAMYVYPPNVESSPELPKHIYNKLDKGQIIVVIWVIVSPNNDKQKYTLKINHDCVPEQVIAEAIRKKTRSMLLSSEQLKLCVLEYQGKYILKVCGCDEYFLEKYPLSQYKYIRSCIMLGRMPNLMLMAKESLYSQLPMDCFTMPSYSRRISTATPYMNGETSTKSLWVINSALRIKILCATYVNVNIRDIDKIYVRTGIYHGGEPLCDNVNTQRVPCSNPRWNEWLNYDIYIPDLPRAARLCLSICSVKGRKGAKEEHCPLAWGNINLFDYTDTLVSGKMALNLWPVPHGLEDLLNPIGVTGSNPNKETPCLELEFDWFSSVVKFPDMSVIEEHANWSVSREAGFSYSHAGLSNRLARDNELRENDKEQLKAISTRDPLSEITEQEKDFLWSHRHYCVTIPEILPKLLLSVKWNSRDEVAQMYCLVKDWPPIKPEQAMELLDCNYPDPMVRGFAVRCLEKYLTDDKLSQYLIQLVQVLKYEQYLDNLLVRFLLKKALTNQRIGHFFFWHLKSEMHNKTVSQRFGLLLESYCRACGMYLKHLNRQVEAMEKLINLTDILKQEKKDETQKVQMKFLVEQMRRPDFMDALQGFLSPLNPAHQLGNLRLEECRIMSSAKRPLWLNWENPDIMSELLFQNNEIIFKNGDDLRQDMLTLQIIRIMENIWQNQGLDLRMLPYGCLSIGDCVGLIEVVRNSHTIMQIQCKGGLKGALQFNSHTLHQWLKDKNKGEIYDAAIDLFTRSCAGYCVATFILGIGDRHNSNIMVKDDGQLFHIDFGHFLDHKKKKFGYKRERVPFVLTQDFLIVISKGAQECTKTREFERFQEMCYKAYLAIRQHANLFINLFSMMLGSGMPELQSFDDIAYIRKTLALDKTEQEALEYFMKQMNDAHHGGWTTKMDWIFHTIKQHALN
T1 sequence (P27986 whole entry partner): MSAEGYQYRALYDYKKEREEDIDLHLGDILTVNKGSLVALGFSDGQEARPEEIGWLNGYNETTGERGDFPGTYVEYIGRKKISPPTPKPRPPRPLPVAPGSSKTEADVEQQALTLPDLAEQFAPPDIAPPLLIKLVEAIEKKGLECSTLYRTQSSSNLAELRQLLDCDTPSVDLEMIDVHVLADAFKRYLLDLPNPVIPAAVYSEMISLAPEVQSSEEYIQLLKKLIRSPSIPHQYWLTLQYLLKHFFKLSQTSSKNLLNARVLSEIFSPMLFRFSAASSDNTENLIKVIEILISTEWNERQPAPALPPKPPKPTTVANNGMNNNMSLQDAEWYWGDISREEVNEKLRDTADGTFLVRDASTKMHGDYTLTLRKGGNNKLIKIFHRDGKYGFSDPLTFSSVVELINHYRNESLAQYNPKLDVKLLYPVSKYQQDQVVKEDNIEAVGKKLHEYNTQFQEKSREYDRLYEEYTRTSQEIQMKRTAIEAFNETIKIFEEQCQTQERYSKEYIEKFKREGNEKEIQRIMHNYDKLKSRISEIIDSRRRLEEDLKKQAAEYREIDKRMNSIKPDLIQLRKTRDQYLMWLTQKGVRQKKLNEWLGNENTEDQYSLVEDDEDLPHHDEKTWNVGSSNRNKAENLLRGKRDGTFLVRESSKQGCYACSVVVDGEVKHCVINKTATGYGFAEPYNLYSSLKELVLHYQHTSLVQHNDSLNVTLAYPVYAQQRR

[7] = system: pERK in MEC-2 cells; test: pERK immunoblotting; assay type: cell-based
Source text: The following antibodies were purchased from Cell Signaling Technology: Akt(#4691), Phospho-Akt(Thr308)(#4056), Phospho-Akt(Ser473)(#4060), GAPDH, GSK-3β(#9315), Phospho-GSK-3β(#9323), FoxO1(#2880), Phospho-FoxO1 (Thr24)/FoxO3a(Thr32)/FoxO4(Thr28)(#2599), PRAS40(#2691), Phospho-PRAS40 (Thr246)(#2997), 4E-BP1(#9644), p70 S6K(#2708), Phospho-p70 S6K (Thr389)(#9234). SQSTM1/p62 (D5E2)(#8025), LC3B(#12513). PARP(#9532), Caspase-3(#9665), Phospho-p44/42 MAPK (Erk1/2) (Thr202/Tyr204)(#4377), p44/42 MAPK (Erk1/2) (#4695), Phospho-NF-ΚB P65 (Ser 536)(#3033), NF-ΚB P65(#4764). Lysophosphatidic Acid (#sc-201053, Santa Cruz), Recombinant Human PDGF-BB (#220-BB, R&D), Recombinant Human C5a (Peprotech, #300-70), goat anti-IgM (#5C07615, Meridian). LC3B antibody (#3868, CST). Tubulin antibody (#8035, Santa Cruz). EEA1 antibody (#610456, BD Bioscience) and LAMP1 antibody (#24170, Abcam). Secondary antibodies, Alexa488-anti-mouse, Alexa594-anti-rabbit and Prolong gold mounting medium with DAPI were purchased from Invitrogen.

[8] = system: MV4-11 cell-inoculated xenograft; test: MV4-11 xenograft tumor model; assay type: in vivo
Source text: Six week old female nu/nu mice were purchased from the Shanghai Experimental Center, Chinese Science Academy (Shanghai). All animals were maintained in a specific pathogen-free facility and used according to the animal care regulations of Hefei Institutes of Physical Science Chinese Academy of Sciences, and all efforts were made to minimize animal suffering. To obtain an […] in the mice, cells were harvested during exponential growth. 7 million MV4-11 cells in PBS were suspended in a 1:1 mixture with Matrigel (BD Biosciences) and injected into the subcutaneous space on the right flank of nu/nu mice. Daily intraperitoneal injection was initiated when MV4-11 tumors had reached a size of 200 to 400 mm^3. Animals were then randomized into treatment groups of 5 mice each for efficacy studies. […] Body weight and tumor growth were measured daily after PI3KD/V-IN-01 treatment. Tumor volumes were calculated as follows: tumor volume (mm^3)=[(W^2× L)/2] in which width (W) is defined as the smaller of the two measurements and length(L) is defined as the larger of the two measurements.
TUNEL staining was performed using the POD in Situ Cell Death Detection kit (Roche, USA). Sections were deparaffinized in xylene, rehydrated in decreasing concentrations of ethanol, then treated by nuclease free Proteinase K for 15 min at room temperature before endogenous peroxidase was blocked in 3% H2O2 in methanol. Terminal deoxynucleotidyl transferase (TdT) in reaction buffer was applied to sections for 1h at 37°C. Following washes, the slides were covered by converter-POD solution for 30 min at 37°C. Apoptotic cells were detected after incubation in the 3, 3′-diaminobenzidine (DAB) chromogen (Beyotime Biotechnology) for approximately 8 min and slides were counterstained with hematoxylin.
Incubations with primary antibodies lasted overnight at 4°C. The secondary detection system was used to visualize antibody binding. Staining was developed with DAB; slides were counterstained with hematoxylin, dehydrated and mounted.

[9] = biological target: T2, PI3Kγ (Homo sapiens, UniProt P48736); test: ADP-Glo biochemical assay; conditions: purified protein, 50 μM ATP, read-out: IC50 against PI3Kγ (PIK3CG)
T2 construct: purchased Invitrogen

[10] = system: FLT3-ITD positive primary AML cells; test: Growth of AML primagraft cells ex vivo; assay type: cell-based; conditions: 72 hours
Protocol: Mononuclear cells were isolated from AML patients. Mononuclear cells were isolated by density gradient centrifugation through Ficoll-Plaque Plus (Amersham Pharmacia Biotech AB, Uppsala, Sweden) at 2000 rpm for 30 minutes, followed by two washes in 1X PBS. Freeze-thawed cells were then cultured in liquid culture (DMEM, supplemented with 20% FBS). All blood and bone marrow samples from AML patients were obtained through written consent under approval of the Dana Farber Cancer Institute Institutional Review Board. The ethics committees approved the consent procedure.

[11] = system: MEC-2; test: Anti-proliferative effect; assay type: cell-based; conditions: MEC2, read-out: GI50 MEC-2
[12] = system: OCI-AML-3; test: Induction of apoptosis (PARP cleavage); assay type: cell-based; conditions: OCI-AML-3, concentrations up to 10 μM
[13] = system: U937; test: Anti-proliferative effect; assay type: cell-based; conditions: Homo sapiens, U-937, read-out: GI50 U937
[14] = biological target: T3, PI3Kδ (Homo sapiens, UniProt O00329); test: biochemical
T3 sequence (O00329 whole entry, canonical isoform): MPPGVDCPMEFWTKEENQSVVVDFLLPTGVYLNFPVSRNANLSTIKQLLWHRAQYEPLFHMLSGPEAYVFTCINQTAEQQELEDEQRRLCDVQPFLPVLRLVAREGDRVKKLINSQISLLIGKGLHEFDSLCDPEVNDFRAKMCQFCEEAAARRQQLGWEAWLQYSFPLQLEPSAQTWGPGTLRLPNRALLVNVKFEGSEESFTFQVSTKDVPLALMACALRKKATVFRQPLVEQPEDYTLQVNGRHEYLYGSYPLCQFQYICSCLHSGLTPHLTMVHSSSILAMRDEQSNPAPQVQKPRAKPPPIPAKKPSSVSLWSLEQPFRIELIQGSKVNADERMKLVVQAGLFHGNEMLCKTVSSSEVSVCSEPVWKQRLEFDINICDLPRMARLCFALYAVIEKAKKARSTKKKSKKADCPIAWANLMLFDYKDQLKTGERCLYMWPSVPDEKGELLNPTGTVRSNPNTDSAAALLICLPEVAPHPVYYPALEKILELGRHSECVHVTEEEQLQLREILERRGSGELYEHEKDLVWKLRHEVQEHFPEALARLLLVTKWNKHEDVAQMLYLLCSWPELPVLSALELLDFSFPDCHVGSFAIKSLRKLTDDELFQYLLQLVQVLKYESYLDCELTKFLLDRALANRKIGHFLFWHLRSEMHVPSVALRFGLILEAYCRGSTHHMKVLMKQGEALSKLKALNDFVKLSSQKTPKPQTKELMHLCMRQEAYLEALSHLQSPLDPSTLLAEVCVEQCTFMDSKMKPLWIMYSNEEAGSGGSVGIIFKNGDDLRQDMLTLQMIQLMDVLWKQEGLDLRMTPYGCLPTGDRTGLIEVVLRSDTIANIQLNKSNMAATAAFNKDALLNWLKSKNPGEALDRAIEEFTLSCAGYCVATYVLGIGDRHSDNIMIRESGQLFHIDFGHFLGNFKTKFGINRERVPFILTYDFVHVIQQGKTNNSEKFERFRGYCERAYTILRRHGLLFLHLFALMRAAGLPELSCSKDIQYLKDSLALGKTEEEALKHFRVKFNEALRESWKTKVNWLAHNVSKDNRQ
T3 sequence (P27986 whole entry partner, canonical isoform): as the sequence (P27986 whole entry partner) above
Protocol: The activities of PI3Kα, PI3Kβ, PI3Kδ, PI3Kγ, PI3KC2α, PI3KC2β, Vps34, PI4Kα and PI4Kβ were determined by using ADP-Glo assay, a fluorescence-based immunoassay that measures kinase activity in terms of the amount of ADP produced. A kinase titration was performed to determine the concentration. The amount of recombinant kinases was optimized to keep the reaction velocity within the linear range, to obtain an adequate difference between the resulting signals of sample in/out the presence of enzyme. The optimized enzyme concentrations for evaluating the inhibitory activities of compounds were chosen as follows: 0.16 μg/ml, 6.0 μg/ml, 1.0 μg/ml, 5.0 μg/ml, 5.0 μg/ml, 10.0 μg/ml, 1.2 μg/ml, 1.2 μg/ml and 1.0 μg/ml for PI3Kα, PI3Kβ, PI3Kδ, PI3Kγ, PI3KC2α, PI3KC2β, Vps34, PI4Kα and PI4Kβ, respectively. The ATP concentration was optimized, 10 μM ATP for PI3Kα and PI3Kβ, and 50 μM ATP for detection of the other seven kinases. The PI3Kα, PI3Kβ, PI3Kδ, PI3Kγ, PI3KC2α, PI3KC2β kinase reactions were carried out in 10 μl volume in a 384-well plate in the kinase reaction buffer containing 50 mM Hepes pH 7.5, 3 mM MgCl2, 1 mM EGTA, 1 mM NaCl, 0.03% CHAPS and 2 mM DTT. […] 10 μl kinase detection reagent was dded and incubated for 30 min at room temperature, before the luminescence signal was read with an envision PerkinElmer plate reader.

[15] = biological target: T4, PI3Kγ (Mus musculus, UniProt Q9JHG7); test: PI3K isoforms cellular selectivity assay (AKT phosphorylation, RAW264.7, C5a); assay type: cell-based; conditions: RAW264.7 cells, C5a stimulation
T4 construct: endogenous in cells; host or cells: RAW264.7 (ATCC)
T4 sequence (Q9JHG7 whole entry, canonical isoform): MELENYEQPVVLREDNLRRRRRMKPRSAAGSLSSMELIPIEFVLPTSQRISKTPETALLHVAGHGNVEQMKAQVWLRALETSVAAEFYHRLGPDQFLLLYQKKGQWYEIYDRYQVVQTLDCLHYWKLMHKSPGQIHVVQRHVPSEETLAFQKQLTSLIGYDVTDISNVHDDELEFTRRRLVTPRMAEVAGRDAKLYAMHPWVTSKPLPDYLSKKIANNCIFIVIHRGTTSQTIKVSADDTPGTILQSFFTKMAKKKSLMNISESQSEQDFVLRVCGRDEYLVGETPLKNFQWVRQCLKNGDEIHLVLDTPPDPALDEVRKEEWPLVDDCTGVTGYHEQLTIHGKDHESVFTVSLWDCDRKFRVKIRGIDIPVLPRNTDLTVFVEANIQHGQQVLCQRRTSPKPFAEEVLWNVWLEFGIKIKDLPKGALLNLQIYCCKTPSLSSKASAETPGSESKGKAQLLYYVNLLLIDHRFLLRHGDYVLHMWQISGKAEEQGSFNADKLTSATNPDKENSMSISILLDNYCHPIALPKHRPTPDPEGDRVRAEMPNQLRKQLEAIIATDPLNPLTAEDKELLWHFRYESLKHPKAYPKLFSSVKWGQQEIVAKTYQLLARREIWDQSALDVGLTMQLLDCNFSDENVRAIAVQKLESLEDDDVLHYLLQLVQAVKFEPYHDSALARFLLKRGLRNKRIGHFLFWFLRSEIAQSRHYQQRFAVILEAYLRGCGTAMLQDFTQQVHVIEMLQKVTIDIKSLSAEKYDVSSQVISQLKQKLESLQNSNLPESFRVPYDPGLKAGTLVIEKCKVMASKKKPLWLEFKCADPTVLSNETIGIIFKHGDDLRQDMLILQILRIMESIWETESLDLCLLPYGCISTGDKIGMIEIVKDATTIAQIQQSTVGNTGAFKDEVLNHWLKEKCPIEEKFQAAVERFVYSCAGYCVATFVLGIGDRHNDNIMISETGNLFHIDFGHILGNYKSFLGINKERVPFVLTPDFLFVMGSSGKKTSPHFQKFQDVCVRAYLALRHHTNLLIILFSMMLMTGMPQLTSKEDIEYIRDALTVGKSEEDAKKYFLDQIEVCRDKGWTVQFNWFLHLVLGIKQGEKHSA
Protocol: Cells were lysed and AKT phosphorylation was determined by Western Blotting. Intensity of the bands was determined using ImageJ 1.42q (NIH, USA) and normalized to total AKT (loading control).

[16] = biological target: T5, PI3Kβ (Homo sapiens, UniProt P42338); test: ADP-Glo biochemical assay; conditions: purified protein, 10 μM ATP, read-out: IC50 against PI3Kβ (PIK3CB)
T5 construct: purchased Sigma
T5 sequence (P42338 whole entry): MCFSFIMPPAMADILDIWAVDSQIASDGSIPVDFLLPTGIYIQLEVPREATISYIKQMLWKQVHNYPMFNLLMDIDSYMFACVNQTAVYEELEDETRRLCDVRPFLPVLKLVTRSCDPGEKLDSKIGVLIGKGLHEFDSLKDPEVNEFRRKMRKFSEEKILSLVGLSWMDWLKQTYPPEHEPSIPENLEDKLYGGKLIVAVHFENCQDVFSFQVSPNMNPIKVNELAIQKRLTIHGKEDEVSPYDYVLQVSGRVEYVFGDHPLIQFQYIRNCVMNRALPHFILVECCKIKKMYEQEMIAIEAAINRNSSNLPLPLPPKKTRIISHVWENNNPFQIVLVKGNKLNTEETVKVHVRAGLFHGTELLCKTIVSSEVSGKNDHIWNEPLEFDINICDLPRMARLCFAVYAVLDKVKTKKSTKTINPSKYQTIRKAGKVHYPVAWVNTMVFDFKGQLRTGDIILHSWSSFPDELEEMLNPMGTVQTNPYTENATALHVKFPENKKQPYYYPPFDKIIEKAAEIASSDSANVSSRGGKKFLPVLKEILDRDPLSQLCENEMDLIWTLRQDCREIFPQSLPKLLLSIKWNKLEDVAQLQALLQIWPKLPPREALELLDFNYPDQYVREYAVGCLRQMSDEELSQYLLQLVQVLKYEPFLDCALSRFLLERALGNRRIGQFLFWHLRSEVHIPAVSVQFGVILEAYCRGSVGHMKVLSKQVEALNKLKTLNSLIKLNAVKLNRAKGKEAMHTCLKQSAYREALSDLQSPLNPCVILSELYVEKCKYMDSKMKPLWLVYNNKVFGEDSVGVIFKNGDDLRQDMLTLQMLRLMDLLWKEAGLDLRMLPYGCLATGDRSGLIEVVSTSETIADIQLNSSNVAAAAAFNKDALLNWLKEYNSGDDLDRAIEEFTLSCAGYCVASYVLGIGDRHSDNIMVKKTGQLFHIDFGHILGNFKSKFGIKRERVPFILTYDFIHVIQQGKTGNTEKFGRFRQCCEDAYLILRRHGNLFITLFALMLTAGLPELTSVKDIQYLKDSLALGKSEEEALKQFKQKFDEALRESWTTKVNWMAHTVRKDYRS
T5 sequence (P27986 whole entry partner): as the sequence (P27986 whole entry partner) above

[17] = biological target: T3, PI3Kδ; test: PI3K isoforms cellular selectivity assay (AKT phosphorylation, Raji, anti-IgM); assay type: cell-based; conditions: Raji cells, anti-IgM stimulation
[18] = immunohistochemistry, MV4-11 xenograft

Cc1nc(NC(=O)CN)sc1-c1cnc(Cl)c(NS(=O)(=O)c2ccc(C(C)(C)C)cc2)c1 [PI3KD/V-IN-01, 2-amino-N-(5-(5-(4-tert-butylphenylsulfonamido)-6-chloropyridin-3-yl)-4-methylthiazol-2-yl)acetamide]
GI50 [1]: 2000 nM | GI50 [2]: > 10000 nM | cell cycle progression [3]: no apparent cell cycle inhibition | EC50 [4]: 1000 nM | S score (5) [5]: 0.00 | IC50 [6]: 64 nM | effect on pERK [7]: significantly inhibited | TGI (Tumor growth inhibition) ([8]; 50 mg/kg/day administered intraperitoneal, MV4-11 xenograft mice): 86.8% | effect on body weight ([8]; 50 mg/kg/day, MV4-11 xenograft mice): no apparent effects on body weight | apoptosis in tumor tissue (TUNEL stain) [8, 18]: dose-dependently increased | cell proliferation in tumor tissue (Ki67 stain) [8, 18]: dose-dependently inhibited | IC50 [9]: 119 nM | inhibition at 1 µM [10]: > 85% | GI50 [11]: 2400 nM | induction of apoptosis [12]: no apoptosis was observed | GI50 [13]: 2200 nM | IC50 [14]: 6 nM | EC50 [15]: 186 nM | IC50 [16]: 111 nM | EC50 [17]: 11 nM
